How the values were obtained:
[1] = test system: human ovarian cancer SK-OV-3; details: 24 mg/kg, D0-4 IV
Description: Purpose: to evaluate and compare the inhibitory activity of the water soluble paclitaxel derivatives, paclitaxel and Abraxane® on subcutaneously xenografted tumor of human ovarian cancer SK-OV-3 in nude mice.
Human ovarian cancer SK-OV-3 cells were subcutaneously inoculated to nude mice. After the tumor volume reached 100-150 mm^3, the animals were randomly divided into groups (D0), and administered with the water soluble paclitaxel derivatives of the following formula, paclitaxel, and Abraxane®, respectively once per day for 5 days. The tumor volume was measured 2-3 times per week, the animals were weighed and the data were recorded until day 22 (D22) after grouping.
(§1) The tumor volume (V) was calculated according to the equation: V=½×a×b^2, wherein a and b represent the length and the width, respectively.
T/C (%)=(T−T0)/(C−C0)×100, wherein T and C represent the tumor volume at the end of the experiment, and T0 and C0 represent the tumor volume at the beginning of the experiment.

[2] = In vitro dissociation in blood plasma of rat; type: in vitro ADME, SD rats; details: fresh SD rat plasma, 37° C.; for Sampling time/Dissociation percent (%) 2 min: 2 min incubation; for Sampling time/Dissociation percent (%) 5 min: 5 min incubation; for Sampling time/Dissociation percent (%) 10 min: 10 min incubation
Protocol: The obtained water soluble taxane derivatives of the following formulae were formulated as 0.2 mg/ml aqueous solutions. […] After 2 min, 5 min and 10 min of incubation, 0.2 ml of solutions were respectively taken from each of the samples, and added to acetonitrile (0.4 ml) cooled to −20° C. for precipitation of protein.

[3] = In vitro dissociation in blood plasma of rabbit; type: in vitro ADME, New Zealand white rabbits; details: fresh New Zealand white rabbit plasma, 37° C.
Protocol: The obtained water soluble taxane derivatives of the following formulae were formulated as 0.2 mg/ml aqueous solutions. […]

[4] = test system: human prostate cancer PC-3; test: Inhibitory activity of docetaxel derivatives on subcutaneously xenografted tumor PC-3 in nude mice; type: in vivo; details: 33.6 mg/kg, D0 IV; for T/C (%) D20 / Tumor volume (mm^3) (D20) / Tumor inhibitory percent (%) D20 / Tumor volume (mm^3) (D0): PC-3 xenograft in nude mice; for Tumor inhibitory percent (%) D20: P = 0.000 vs control; for Tumor volume (mm^3) (D0): baseline at grouping (D0); for Weight change (%) D6: nude mice
Description: Purpose: to evaluate and compare the inhibitory activity of the water soluble docetaxel derivatives and docetaxel on subcutaneously xenografted tumor of human prostate cancer PC-3 in nude mice
Human prostate cancer PC-3 cells were subcutaneously inoculated into nude mice. After the tumor volume reached 100-150 mm^3, the animals were randomly divided into several groups, and administered with the water soluble docetaxel derivatives of the following formula and docetaxel, respectively once on the same day (D0). The tumor volume was measured 2-3 times per week, the animals were weighed and the data were recorded until day 20 (D20) after grouping.
as §1
T/C (%)=(T−T0)/(C−C0)×100, wherein T and C represent the tumor volume at the end of the experiment; and T0 and C0 represent the tumor volume at the beginning of the experiment.

[5] = D22, SK-OV-3 xenograft in nude mice

Compound | Body weight change (%) D4 ([1]; D4, nude mice) | T/C (%) D22 [1, 5] | Tumor volume (mm^3) (D22) [1, 5] | Tumor inhibitory percent (%) D22 ([1]; D22, SK-OV-3 xenograft in nude mice, P = 0.000 vs control) | Tumor volume (mm^3) (D0) ([1]; baseline at grouping (D0), SK-OV-3 xenograft in nude mice) | Sampling time/Dissociation percent (%) 2 min [2] | Sampling time/Dissociation percent (%) 5 min [2] | Sampling time/Dissociation percent (%) 10 min [2] | Sampling time/Dissociation percent (%) 2 min [3] | Sampling time/Dissociation percent (%) 5 min [3] | Sampling time/Dissociation percent (%) 10 min [3] | T/C (%) D20 [4] | Tumor volume (mm^3) (D20) [4] | Tumor inhibitory percent (%) D20 [4] | Tumor volume (mm^3) (D0) [4] | Weight change (%) D6 [4]
CC(=O)OC1C(=O)C2(C)C(O)CC3OCC3(OC(C)=O)C2C(OC(=O)c2ccccc2)C2(O)CC(OC(=O)C(OC(=O)C(F)CC(C)N(C)C)C(NC(=O)c3ccccc3)c3ccccc3)C(C)=C1C2(C)C.O=C(O)C=CC(=O)O [Compound C23, 2′-O-[4-N,N-dimethylamino-2(R)-fluorovaleryl]paclitaxel maleate] | −9.4% | −23% | 70.8 ± 16.8 mm^3 | 60% | 135.8 ± 14.7 mm^3 |  |  |  |  |  |  |  |  |  |  | 
CC(=O)O[C@@]12CO[C@@H]1C[C@H](O)[C@@]1(C)C(=O)[C@H](O)C3=C(C)[C@@H](OC(=O)[C@H](OC(=O)[C@@H](F)CCN(C)C)[C@@H](NC(=O)OC(C)(C)C)c4ccccc4)C[C@@](O)([C@@H](OC(=O)c4ccccc4)[C@H]21)C3(C)C.CS(=O)(=O)O [Compound C5, 2′-O-[4-N,N-dimethylamino-2(S)-fluorobutyryl]docetaxel methanesulfonate] |  |  |  |  |  | 58.9% | 93.3% | 100% | 81.2% | 93.1% | 100% | −76% | 26.8 ± 12.6 mm^3 | 175% | 113.4 ± 3.1 mm^3 | 
CC(=O)O[C@@]12CO[C@@H]1C[C@H](O)[C@@]1(C)C(=O)[C@H](O)C3=C(C)[C@@H](OC(=O)[C@H](OC(=O)[C@H](F)CCN(C)C)[C@@H](NC(=O)OC(C)(C)C)c4ccccc4)C[C@@](O)([C@@H](OC(=O)c4ccccc4)[C@H]21)C3(C)C.CS(=O)(=O)O [Compound C4, 2′-O-[4-N,N-dimethylamino-2(R)-fluorobutyryl]docetaxel methanesulfonate] |  |  |  |  |  | 59.2% | 93.4% | 100% | 81.6% | 94.8% | 100% | −77% |  | 177% | 113.7 ± 2.9 mm^3 | 
CC(=O)O[C@@]12CO[C@@H]1C[C@H](O)[C@@]1(C)C(=O)[C@H](O)C3=C(C)[C@@H](OC(=O)[C@H](OC(=O)C(F)CCN(C)C)[C@@H](NC(=O)OC(C)(C)C)c4ccccc4)C[C@@](O)([C@@H](OC(=O)c4ccccc4)[C@H]21)C3(C)C.CS(=O)(=O)O (stereo partly drawn) [Compound C6, 2′-O-[4-N,N-dimethylamino-2(R,S)-fluorobutyryl]docetaxel methanesulfonate] |  |  |  |  |  | 59.1% | 93.3% | 100% | 76.8% | 97.8% | 100% | −76% | 27.0 ± 12.3 mm^3 | 175% | 113.8 ± 3.0 mm^3 | −12.6%
CC(=O)O[C@@]12CO[C@@H]1C[C@H](O)[C@@]1(C)C(=O)[C@H](O)C3=C(C)[C@@H](OC(=O)[C@H](OC(=O)[C@H](F)CCN(C)C(C)C)[C@@H](NC(=O)OC(C)(C)C)c4ccccc4)C[C@@](O)([C@@H](OC(=O)c4ccccc4)[C@H]21)C3(C)C.Cl [Compound C27, 2′-O-[4-N-methyl-N-isopropylamino-2(R)-fluorobutyryl]docetaxel hydrochloride] |  |  |  |  |  |  |  |  |  |  |  | −44% | 35.3 ± 14.7 mm^3 | 101% | 116.3 ± 3.7 mm^3 | −14.4%

Source: patent US9650390B2, “Water-soluble taxane derivatives and uses thereof” (priority 2014, dated 2017)
